This data set in a line: Pharmacokinetics of resveratrol-containing particles in orally dosed Sprague-Dawley rats. The class given is in vivo. Conditions: rat, plasma, 20 mg/kg. The protocol: Parameters were estimated using Watson pharmacokinetic software 7.4.2 (Thermo Electron Corporation) using a non-compartmental approach consistent with the various routes of administration. All parameters were generated from […] individual animal concentrations in plasma. Parameters were estimated using nominal sampling times to be relative to the start of each dose administration (within an acceptable tolerance limit). As no dose formulation samples were analyzed, the nominal calculated dose for active ingredient (20 mg/kg, as per the study protocol, was used for dose-normalization purposes). The area under the test item concentration versus time curve (AUC) was calculated using the linear-log linear trapezoidal method. AUC was not calculated for PK profiles with less than 3 consecutive quantifiable concentrations of test article at separate time points. When practical, the terminal elimination phase of each concentration versus time curve was identified using at least the final three observed concentration values. The slope of the terminal elimination phase was determined using linear regression on the unweighted concentration data. […] The parameters described below were reported to 3 significant figures. Animals were fasted overnight, food was returned 4 hours post dosing. […] Aggregated data is summarized for individual animals in Table 4, below.

For orientation: Cmax means the highest concentration seen after dosing. In general, AUC refers to the area under the concentration-time curve, a measure of exposure. Consider `Oc1ccc(C=Cc2cc(O)cc(O)c2)cc1` [Unencapsulated Resveratrol, Resveratrol], for which, under “oral”, the concentration at 0.5 h came to 0.0784 µg/mL, the concentration at 1 h came out at 0.0293 µg/mL and the concentration at 2 h stood at 0.0472 µg/mL. The compound also displayed a Cmax (po) of 0.0824 µg/mL. Also, under “po, read-out: AUC(0-x)”, the AUC is 0.0828 µg·h/mL.

The values are drawn from patent publication US20190175507A1, “COMPOSITIONS FOR ORAL ADMINISTRATION OF ACTIVE AGENTS” (Tamarisk Technologies Group LLC, priority 2016, published 2019).
